Values of other authors, collected in US6395721B1, “Low potency unpreserved sterile topical corticosteroid compositions for dermatitis” (priority 2000, dated 2002).

Assays:
skin of human volunteers = test system: skin of human volunteers; set-up: key to Ranking of Topical steroids for Psoriasis (potency group): I: Group 1 is the most potent; potency descends with each group to Group VII; III: potency descends with each group to Group VII; IV: potency descends with each group to Group VII; potency descends with each group to Group VII; potency descends with each group to Group VII; Group VII, which is least potent; settings: for potency rating of steroid compositions on a scale of 1 to 7, with 7 being the least potent: rating in words, Cornell and Stoughton; for potency of corticosteroid (in words): as worded for contemplated compositions, aldomethasone and desonide at 0.05%; for Ranking of Topical steroids for Psoriasis (potency group): no significant difference of agents within any given group
stripped skin = settings: applied to stripped skin, which develops erythema

| Compound | potency rating of steroid compositions on a scale of 1 to 7, with 7 being the least potent (skin of human volunteers) | potency of corticosteroid (in words) (skin of human volunteers) | Ranking of Topical steroids for Psoriasis (potency group) (skin of human volunteers) | effect on erythema of stripped skin (stripped skin) |
| --- | --- | --- | --- | --- |
| C[C@H]1C[C@H]2[C@@H]3CCC4=CC(=O)C=C[C@]4(C)[C@@]3(F)[C@@H](O)C[C@]2(C)[C@@]1(O)C(=O)CCl [Clobetasol] | among the most potent steroids |  |  |  |
| C[C@]12CCC(=O)C=C1CC[C@@H]1[C@@H]2C(=O)C[C@@]2(C)[C@H]1CC[C@]2(O)C(=O)CO [cortisone] | Among the least potent steroids |  |  |  |
| CC1(C)O[C@@H]2C[C@H]3[C@@H]4CCC5=CC(=O)C=C[C@]5(C)[C@H]4[C@@H](O)C[C@]3(C)[C@]2(C(=O)CO)O1 [desonide] | Among the least potent steroids | intermediate potency |  |  |
| CCCC(=O)O[C@]1(C(=O)CO)CC[C@H]2[C@@H]3CCC4=CC(=O)CC[C@]4(C)[C@H]3[C@@H](O)C[C@@]21C [hydrocortisone butyrate] | Among the least potent steroids |  |  |  |
| CCCCC(=O)O[C@]1(C(=O)CO)CC[C@H]2[C@@H]3CCC4=CC(=O)CC[C@]4(C)[C@H]3[C@@H](O)C[C@@]21C [hydrocortisone valerate] | Among the least potent steroids |  |  |  |
| C[C@]12CCC(=O)C=C1CC[C@@H]1[C@@H]2[C@@H](O)C[C@@]2(C)[C@H]1CC[C@]2(O)C(=O)CO [hydrocortisone] | Among the least potent steroids |  | VII. | develop blanching |
| C[C@]12C=CC(=O)C=C1CC[C@@H]1[C@@H]2[C@@H](O)C[C@@]2(C)[C@H]1CC[C@]2(O)C(=O)CO [prednisolone] |  |  | VII. |  |
| aldomethasone |  | low potency |  |  |
| aldomethasone diproprionate | Among the least potent steroids | low potency |  |  |
| flumethalone |  |  | VII. |  |
